From patent US12337010B2, “Compositions and methods of treatment using nicotinamide mononucleotide” (Washington University, priority 2017, dated 2025)

What was measured:
Slc12a8 [1] = target: T1, Slc12a8 (Mus musculus, UniProt Q8VI23); test: 3H-NMN uptake and displacement in Slc12a8-OE proteoliposomes; format: biochemical; settings: for displacement of 3H-NMN: 150 μM cold compound, 150 nM 3H-NMN, 2 min
T1 construct: NIH3T3 cells were transfected with 5 μg of pCXN2 carrying the full-length Slc12a8 cDNA (Slc12a8-OE); expressed in transfected cells
T1 sequence (Q8VI23 1-705): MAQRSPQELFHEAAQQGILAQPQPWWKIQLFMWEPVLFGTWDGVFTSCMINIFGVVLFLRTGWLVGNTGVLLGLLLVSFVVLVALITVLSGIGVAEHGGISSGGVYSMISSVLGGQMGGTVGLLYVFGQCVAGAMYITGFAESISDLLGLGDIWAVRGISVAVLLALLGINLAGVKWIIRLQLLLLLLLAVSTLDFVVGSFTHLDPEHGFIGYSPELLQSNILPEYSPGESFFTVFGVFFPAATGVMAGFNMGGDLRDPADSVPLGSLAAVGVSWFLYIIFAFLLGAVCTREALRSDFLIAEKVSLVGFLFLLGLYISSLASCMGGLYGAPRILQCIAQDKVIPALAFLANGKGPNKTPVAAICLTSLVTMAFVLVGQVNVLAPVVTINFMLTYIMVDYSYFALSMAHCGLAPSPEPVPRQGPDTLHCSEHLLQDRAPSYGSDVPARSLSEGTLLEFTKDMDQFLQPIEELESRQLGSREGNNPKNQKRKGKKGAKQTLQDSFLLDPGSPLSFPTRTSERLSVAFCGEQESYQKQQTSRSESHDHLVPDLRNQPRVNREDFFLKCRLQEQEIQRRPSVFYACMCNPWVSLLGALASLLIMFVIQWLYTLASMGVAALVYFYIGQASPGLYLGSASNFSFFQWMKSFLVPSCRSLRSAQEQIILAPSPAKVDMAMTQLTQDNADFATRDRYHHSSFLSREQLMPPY
Protocol: Proteoliposome experiments. Proteoliposome preparation was carried out as previously described (Bruzzone, S., et al., FASEB J., 15, 10-12, 2001). Briefly, 2×10^7 control or Slc12a8-OE NIH3T3 cells were resuspended in 1 ml of lysis buffer (10 mM Tris-HCl, pH 8.3, 150 mM NaCl, 0.3 M sucrose, protease inhibitor cocktail) and disrupted using a homogenizer. The lysate was centrifuged for 10 min at 3,000×g, and the supernatant was collected and centrifuged for 15 min at 100,000×g. The membrane proteins were solubilized with buffer A (10 mM Tris-HCl, pH 8.3, containing 150 mM NaCl and 0.5% n-octyl β-glucopyranoside). Separately, total lipids were extracted from hemoglobin-free erythrocyte membranes (ghosts) as described previously (Franco, L., et al., FASEB J., 12, 1507-1520, 1998). Total lipids from human erythrocyte membranes (3 mg) were dried and resuspended with 600 μl of solubilized membrane proteins (at approximately 0.7 mg/ml protein concentration). The resulting emulsions were sonicated in ice for 1 min and dialyzed against 5 liters of buffer A without n-octyl-β-glucopyranoside (dialysis buffer) for 24 h at 4° C. Proteoliposomes were recovered, centrifuged for 15 min at 100,000×g, resuspended in 900 μl dialysis buffer and passed 5 times through a 30-gauge needle.
To examine the Na+-dependency of Slc12a8, NaCl was replaced with 150 mM LiCl. All steps were carried out at 4° C. Proteoliposomes (30 μl in triplicate for each condition) were incubated for 2, 5 or 10 min at 25° C. in the presence of […] 3H-β-NMN (specific activity, 9.1 Ci/mmole) with or without label-free nucleotides (NMN, NR, NAD, AMP; NAM or NaMN). At the end of incubations, samples were filtered on a glass fiber paper. Filters were washed with 3 ml of dialysis buffer, dried, and counted for radioactivity.
Proteoliposomes were produced by combining the membrane fractions of Slc12a8-OE or control NIH3T3 cells with the phospholipid bilayers derived from deproteinized erythrocyte plasma membrane as described supra using 22 nM, ^3H-NMN at 25° C. in proteoliposomes produced from plasma membrane fractions of Slc12a8-OE and control NIH3T3 cells in transport buffer (n=3; analyzed by one-way ANOVA with Sidak's multiple comparisons test).
In order to determine substrate specificity of Slc12a8, these Slc12a8-OE proteoliposomes were used for displacement experiments with ^3H-NMN and various cold NAD+-related compounds. Uptake of ^3H-NMN (150 nM, 25° C.) was measured at 2 min in Slc12a8-OE proteoliposomes in the presence of 150 μM competing cold compounds (NMN, NR, NAD, AMP, NaMN, and nicotinamide) in transport buffer (n=3, analyzed by ANOVA with Dunnett's test). […] Data are shown as percentages of ^3H-NMN uptake (n=3; IC50 was calculated by non-linear regression analysis).
In these experiments, the sodium ion dependency of Slc12a8 for NMN transport was evaluated using the proteoliposome system.

Slc12a8 [2] = target: T1, Slc12a8; test: Radiolabeled NMN uptake in Slc12a8-OE and control NIH3T3 cells; format: cell-based; settings: 25 μM, 37° C., 3 and 5 min time points, Slc12a8-OE cells compared to control cells
Protocol: NMN uptake analyses with radiolabeled NMN. Control and Slc12a8-OE NIH3T3 cells were harvested by centrifugation (400×g, 5 min), washed once in HBSS, and incubated at 37° C. in HBSS [pH 7.5] (5×10^6 cells/ml) containing 100 nM 3H-β-Nicotinamide mononucleotide (9 Ci/mmol; Moravek Biochemicals, CA) and unlabeled NMN to make the final concentration 25 μM. At the designated time points (1, 3, 5 and 10 minutes), aliquots of the cells (100 μl) were collected and placed in 1.5-ml microcentrifuge tubes containing silicone-mineral oil (density, 1.015; Sigma-Aldrich) on the top of 2 M potassium hydroxide solution, followed by centrifugation at 16,000×g for 30s. Cells were separated from the buffer and pelleted through the silicone-mineral oil layer. The radioactivity in these cell pellets was determined by a liquid scintillation counter. For calculating Km and Vmax, the same conditions were used as described above, but with various total concentrations of NMN, ranging from 1 μM to 100 μM. At the 4-min time point, 100 μl of cell suspension was collected and pelleted in the same way described above. The radioactivity in cell pellets was determined by a liquid scintillation counter. The radioactivity measured in control NIH3T3 cells was subtracted to calculate Slc12a8-specific NMN uptake in Slc12a8-OE NIH3T3 cells.
Uptake of NMN was measured as described in methods under “NMN uptake analyses with radiolabeled NMN” using 25 μM ^3H-NMN at 37° C. in control and Slc12a8-OE NIH3T3 cells over 10 min in Hanks' buffer [ph7.5] with Mg2+ and Ca2+ (n=12; analyzed by ANOVA with Sidak's test). […] This Km is qualitatively consistent with a detected range of NMN concentrations in mouse plasma and erythrocytes (Revollo, J. R. et al., Cell Metab., 6, 363-375, 2007; Ramsey, K. M., et al., Science, 324, 651-654, 2009; Yamada, K., et al., Anal. Biochem., 352, 282-285, 2006).

Slc12a8 mRNA expression = Slc12a8 mRNA expression by quantitative RT-PCR in cells and ex vivo small intestine explants; format: cell-based, mouse; settings: FK866 alone; primary hepatocytes, NIH3T3 fibroblasts (24 h), jejunum and ileum explants (4 h)
Protocol: Cell culture and ex vivo small intestine explant culture. […] For Slc12a8 mRNA expression analysis, 2.5×10^5 cells per well were incubated in 6-well plates with DMEM with 1% FBS containing 0.1% DMSO or 100 nM FK866 or 100 nM FK866 plus 100 μM NMN for 24 h. Small intestines from 3-month old B6 male mice were cut into three segments with duodenum/jejunum/ileum length ratios of 1:3:2 (Wang, H. H., et al., Hepatology 45, 998-1006, 2007). […] Cellular and tissue RNA samples were analyzed by quantitative RT-PCR, as described previously (Stein, L. R. & Imai, S., EMBO J., 33, 1321-1340, 2014).
The amounts of adenosine produced were determined by HPLC. […] Silencing efficiencies were evaluated by quantitative RT-PCR.
FIG. 2 illustrates that Slc12a8 is highly expressed in the small intestine and pancreas and moderately in the liver and white adipose tissue of B6 male mice at 3 months of age (n=3 mice). […] Cells were treated with these compounds for 24 h (n=4 mice for hepatocytes treated with DMSO and FK866, and n=3 mice for hepatocytes treated with FK866 and NMN; n=6 for NIH3T3 cells; analyzed using ANOVA with Tukey's test). FIG. 5 illustrates surface and intracellular Slc12a8 protein expression levels were measured by flow cytometry analysis in NIH3T3 cells treated with FK866 or FK866 plus NMN for 48h. […]

Slc12a8 gene = test: Microarray gene expression profiling of FK866-treated primary cultures; format: cell-based, mouse
Protocol: Microarray Analysis. Total RNA was isolated from primary hepatocytes, pancreatic islets, and hippocampal neurospheres, treated with 0.1% DMSO (control) or FK866 (200 nM for primary hepatocytes, and 10 nM for pancreatic islets and hippocampal neurospheres). To determine transcriptional changes induced by FK866 treatment, microarray analyses were conducted using the Illumina Mouse Ref 8 whole genome microarrays (version 2). […] All data were analyzed by the R statistical software package.
Slc12a8 was identified in the section of the Venn diagram in FIG. 1 indicated by an arrow. The Slc12a8 gene belongs to the SLC12 gene family of the electroneutral cation-chloride-coupled co-transporters, and the function of the protein encoded by this gene remains unknown (Hebert, S. C., et al., Pflugers Arch. 447, 580-593, 2004).

3H-β-Nicotinamide mononucleotide [^3H-NMN]
3H-NMN incorporation (Slc12a8 [1]; 22 nM, 25° C., within 2 min, Slc12a8-OE-derived vs control-derived proteoliposomes): significantly higher levels | uptake of 3H-NMN (Slc12a8 [2]): significantly enhanced

Nc1ncnc2c1ncn2[C@@H]1O[C@H](COP(=O)(O)O)[C@@H](O)[C@H]1O [AMP, adenosine monophosphate]
displacement of 3H-NMN (Slc12a8 [1]; 25° C.): very low or negligible displacement

O=C(/C=C/c1cccnc1)NCCCCC1CCN(C(=O)c2ccccc2)CC1 [FK866]
Slc12a8 expression (Slc12a8 mRNA expression): induced significantly | Slc12a8 Z ratio (Slc12a8 gene; hippocampal neurospheres, 10 nM FK866 vs 0.1% DMSO): 4.91 | Slc12a8 Z ratio (Slc12a8 gene; pancreatic islets, 10 nM FK866 vs 0.1% DMSO): 1.69 | Slc12a8 Z ratio (Slc12a8 gene; primary hepatocytes, 200 nM FK866 vs 0.1% DMSO): 2.06

O=C(O)c1cccnc1 [NA, nicotinic acid]
effect on uptake of 3H-NMN (Slc12a8 [1]; Slc12a8-overexpressing proteoliposomes): able to enhance the uptake

NC(=O)c1ccc[n+]([C@@H]2O[C@H](COP(=O)([O-])OP(=O)(O)OC[C@H]3O[C@@H](n4cnc5c(N)ncnc54)[C@H](O)[C@@H]3O)[C@@H](O)[C@H]2O)c1 [NAD+]
displacement of 3H-NMN (Slc12a8 [1]; 25° C.): very low or negligible displacement

NC(=O)c1ccc[n+]([C@@H]2O[C@H](CO)[C@@H](O)[C@H]2O)c1 [NR, nicotinamide riboside]
displacement of 3H-NMN (Slc12a8 [1]; 25° C.): ~70% | IC50 (Slc12a8 [1]; Slc12a8-OE proteoliposome system): 77.4 ± 10.8 µM

O=C(O)c1ccc[n+]([C@@H]2O[C@H](COP(=O)(O)O)[C@@H](O)[C@H]2O)c1 [NaMN, nicotinic acid mononucleotide]
displacement of 3H-NMN (Slc12a8 [1]; 25° C.): very low or negligible displacement

NC(=O)c1cccnc1 [nicotinamide]
displacement of 3H-NMN (Slc12a8 [1]; 25° C.): very low or negligible displacement
